Reference: PubChem BioAssay (NCI)
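A five-concentration, 48-hour dose response in 96-well plates underlies each endpoint, interpolated linearly between surrounding concentrations. TGI: concentration producing complete growth inhibition.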

Key:
Assay in all cases: NCI tumour cell line growth inhibition, 48 h
SW-620 colon = system: SW-620 colon
RXF 393 renal = system: RXF 393 renal
NCI-H226 lung = system: NCI-H226 lung
SN12C renal = system: SN12C renal
SK-MEL-5 melanoma = system: SK-MEL-5 melanoma
SF-268 CNS = system: SF-268 CNS
UACC-62 melanoma = system: UACC-62 melanoma
HS 578T breast = system: HS 578T breast
NCI-H522 lung = system: NCI-H522 lung
SF-295 CNS = system: SF-295 CNS
RPMI-8226 leukemia = system: RPMI-8226 leukemia
EKVX NSCLC = system: EKVX NSCLC
BT-549 breast = system: BT-549 breast
A549 NSCLC = system: A549 NSCLC
CAKI-1 renal = system: CAKI-1 renal
DU-145 prostate = system: DU-145 prostate
SK-OV-3 ovarian = system: SK-OV-3 ovarian
MALME-3M melanoma = system: MALME-3M melanoma
UO-31 renal = system: UO-31 renal
HOP-92 NSCLC = system: HOP-92 NSCLC
MOLT-4 leukemia = system: MOLT-4 leukemia
OVCAR-5 ovarian = system: OVCAR-5 ovarian
HT29 colon = system: HT29 colon
KM12 colon = system: KM12 colon
HOP-62 NSCLC = system: HOP-62 NSCLC
MDA-MB-231 breast = system: MDA-MB-231 breast
U251 CNS = system: U251 CNS
MDA-N = system: MDA-N
TK-10 renal = system: TK-10 renal
CCRF-CEM leukemia = system: CCRF-CEM leukemia
HCC-2998 colon = system: HCC-2998 colon
T-47D breast = system: T-47D breast
LOX IMVI melanoma = system: LOX IMVI melanoma
SNB-19 CNS = system: SNB-19 CNS
OVCAR-4 ovarian = system: OVCAR-4 ovarian
IGROV1 ovarian = system: IGROV1 ovarian
NCI-H460 lung = system: NCI-H460 lung
K-562 leukemia = system: K-562 leukemia
A498 renal = system: A498 renal
HCT-116 colon = system: HCT-116 colon
MCF7 breast = system: MCF7 breast
NCI-H23 lung = system: NCI-H23 lung
NCI/ADR-RES ovarian = system: NCI/ADR-RES ovarian
M14 melanoma = system: M14 melanoma
HCT-15 colon = system: HCT-15 colon
OVCAR-3 ovarian = system: OVCAR-3 ovarian
HL-60(TB) leukemia = system: HL-60(TB) leukemia
OVCAR-8 ovarian = system: OVCAR-8 ovarian
UACC-257 melanoma = system: UACC-257 melanoma
MDA-MB-435 = system: MDA-MB-435
786-0 renal = system: 786-0 renal
SK-MEL-28 melanoma = system: SK-MEL-28 melanoma
ACHN renal = system: ACHN renal
PC-3 prostate = system: PC-3 prostate
COLO 205 colon = system: COLO 205 colon

Compound `Clc1ccc(CSC2=NCCN2)cc1Cl` has a TGI (SW-620 colon) of 35.4 µM, a TGI (RXF 393 renal) of 28.4 µM and a TGI (NCI-H226 lung) of 42.3 µM. The TGI (SN12C renal) was 35.8 µM, the TGI (SK-MEL-5 melanoma) was 26 µM and the TGI (SF-268 CNS) was 42.5 µM. It also gave a TGI (UACC-62 melanoma) of 30.5 µM, a TGI (HS 578T breast) of 53.7 µM and a TGI (NCI-H522 lung) of 21.5 µM. It also gave a TGI (SF-295 CNS) of over 100 µM, a TGI (RPMI-8226 leukemia) of 36.3 µM and a TGI (EKVX NSCLC) of 24.3 µM. The TGI (BT-549 breast) was 40.2 µM, the TGI (A549 NSCLC) was 98.9 µM and the TGI (CAKI-1 renal) was 23.5 µM. It also gave a TGI (DU-145 prostate) of 29.7 µM, a TGI (SK-OV-3 ovarian) of 49.5 µM and a TGI (MALME-3M melanoma) of 28.6 µM. The TGI (UO-31 renal) was 23.6 µM, the TGI (HOP-92 NSCLC) was 13.8 µM and the TGI (MOLT-4 leukemia) was 35.9 µM. For the same compound, the TGI (OVCAR-5 ovarian) was 53.3 µM, the TGI (HT29 colon) was 28.4 µM and the TGI (KM12 colon) was 33.5 µM. It also gave a TGI (HOP-62 NSCLC) of 47.1 µM, a TGI (MDA-MB-231 breast) of 29.2 µM and a TGI (U251 CNS) of 27 µM. The TGI (MDA-N) was 25 µM, the TGI (TK-10 renal) was 31.5 µM and the TGI (CCRF-CEM leukemia) was 22.3 µM. It also gave a TGI (HCC-2998 colon) of 30.1 µM, a TGI (T-47D breast) of 27 µM and a TGI (LOX IMVI melanoma) of 30.1 µM. For the same compound, the TGI (SNB-19 CNS) was over 100 µM, the TGI (OVCAR-4 ovarian) was 27 µM and the TGI (IGROV1 ovarian) was 39.1 µM. For the same compound, the TGI (NCI-H460 lung) was 37.3 µM, the TGI (K-562 leukemia) was 88.8 µM and the TGI (A498 renal) was 52.8 µM. The TGI (HCT-116 colon) was 28.7 µM, the TGI (MCF7 breast) was 25.2 µM and the TGI (NCI-H23 lung) was 35.8 µM. It also gave a TGI (NCI/ADR-RES ovarian) of 49.8 µM, a TGI (M14 melanoma) of 30.6 µM and a TGI (HCT-15 colon) of 31.9 µM. For the same compound, the TGI (OVCAR-3 ovarian) was 30.3 µM, the TGI (HL-60(TB) leukemia) was 27.7 µM and the TGI (OVCAR-8 ovarian) was 40 µM. For the same compound, the TGI (UACC-257 melanoma) was 24.1 µM, the TGI (MDA-MB-435) was 30.5 µM and the TGI (786-0 renal) was 23.8 µM. The TGI (SK-MEL-28 melanoma) was 35.1 µM, the TGI (ACHN renal) was 30.9 µM and the TGI (PC-3 prostate) was 23.7 µM. It also gave a TGI (COLO 205 colon) of 37.9 µM.
